Laboratory results: patent US11584765B2 (priority 2017, dated 2023)

System: C57BL/6 mice
Assay: animal or person
Assay type: in vivo
Conditions: Mus musculus, sc, 0.5 h, s.c. administration, 30 min, 55° C. water, read-out: ED50 (mg/kg) at 30 min on C57BL/6 mice in Warm-water Tail-flick Test

| Structure (SMILES) | ED50 [mg/kg] |
| --- | --- |
| CC(=O)Nc1ccc(CN2CC[C@@](CCc3ccccc3)([C@@H]3C=CCO3)C2)cc1 (single isomer, unassigned) [Compound 258] | < 10 |
| CC(=O)Nc1ccc(CN2CC[C@@](CCc3ccccc3)([C@H]3C=CCO3)C2)cc1 (single isomer, unassigned) [Compound 259] | < 10 |
| CC(=O)Nc1ccc(CN2CC[C@](CCc3ccccc3)([C@@H]3C=CCO3)C2)cc1 (single isomer, unassigned) [Compound 260] | > 10 |
| CC(=O)Nc1ccc(CN2CC[C@](CCc3ccccc3)([C@H]3C=CCO3)C2)cc1 (single isomer, unassigned) [Compound 261] | > 10 |
| C[C@H](O)[C@]1(CCc2cccs2)CCN(Cc2cccnc2)C1 (single isomer, unassigned) [Compound 422] | < 10 |
| C[C@H](O)[C@@]1(CCc2cccs2)CCN(Cc2cccnc2)C1 (single isomer, unassigned) [Compound 423] | < 10 |
| C[C@@H](O)[C@]1(CCc2cccs2)CCN(Cc2cccnc2)C1 (single isomer, unassigned) [Compound 424] | < 10 |
| CCOC(C)[C@@]1(CCc2cccs2)CCN(C(C)(C)c2ccc(C)nc2)C1 (single isomer, unassigned) [Compound 425, 5-(2-((S)-3-((S or R)-1-ethoxyethyl)-3-(2-(thiophen-2-yl)ethyl)pyrrolidin-1-yl)propan-2-yl)-2-methylpyridine] | < 10 |
| CCOCC1(CCc2cccs2)CCN(Cc2ccc(NC(C)=O)cc2)C1 (stereo in doubt) [Compound 325, (R)-N-(4-((3-(ethoxymethyl)-3-(2-(thiophen-2-yl)ethyl)pyrrolidin-1-yl)methyl)phenyl)acetamide] | < 10 |
| CC(=O)Nc1ccc(CN2CCC(CCc3ccccc3)(c3ncc[nH]3)CC2)cc1 [Compound 1] | > 10 |
| CC(=O)Nc1ccc(CN2CCC(CCc3ccccc3)(c3cccs3)CC2)cc1 [Compound 2] | > 10 |
| CC(=O)Nc1ccc(CN2CCC(CCc3ccccc3)(c3ccsc3)CC2)cc1 [Compound 3] | > 10 |
| CC(=O)Nc1ccc(CN2CCC(CCc3ccccc3)(c3ccccc3)CC2)cc1 [Compound 4] | > 10 |
| CC(=O)Nc1ccc(CN2CCC(CCc3ccccc3)(c3ccccn3)CC2)cc1 [Compound 5] | < 10 |
| CC(=O)Nc1ccc(CN2CCC(CCc3ccccc3)(c3cccnc3)CC2)cc1 [Compound 6] | > 10 |
| CC(=O)Nc1ccc(CN2CCC(CCc3ccccc3)(c3ccncc3)CC2)cc1 [Compound 7] | > 10 |
| CC(=O)Nc1ccc(CN2CCC(CCc3ccccc3)(c3nncs3)CC2)cc1 [Compound 8] | > 10 |
| CC(=O)Nc1ccc(CN2CCC(CCc3ccccc3)(c3nnco3)CC2)cc1 [Compound 9] | > 10 |
| CC(=O)Nc1ccc(CN2CCC(CCc3ccccc3)(c3ncon3)CC2)cc1 [Compound 10] | > 10 |

| Structure (SMILES) | ED50 [mg/kg] |
| --- | --- |
| CC(=O)Nc1ccc(CN2CCC(CCc3ccccc3)(c3noc(C)n3)CC2)cc1 [Compound 11] | > 10 |
| CC(=O)Nc1ccc(CN2CCC(CCc3ccccc3)(c3nnc(C)o3)CC2)cc1 [Compound 12, N-(4-((4-(5-methyl-1,3,4-oxadiazol-2-yl)-4-phenethylpiperidin-1-yl)methyl)phenyl)acetamide] | > 10 |
| CC(=O)Nc1ccc(CN2CCC(CCc3ccccc3)(c3nnc(C)s3)CC2)cc1 [Compound 13, N-(4-((4-(5-methyl-1,3,4-thiadiazol-2-yl)-4-phenethylpiperidin-1-yl)methyl)phenyl)acetamide] | > 10 |
| CC(=O)Nc1ccc(CN2CCC(Cc3ccccc3)(c3ccccn3)CC2)cc1 [Compound 14, N-(4-((4-benzyl-4-(pyridin-2-yl)piperidin-1-yl)methyl)phenyl)acetamide] | > 10 |
| CC(=O)Nc1ccc(CN2CCC(CCCc3ccccc3)(c3ccccn3)CC2)cc1 [Compound 15, N-(4-((4-(3-phenylpropyl)-4-(pyridin-2-yl)piperidin-1-yl)methyl)phenyl)acetamide] | > 10 |
| CC(=O)Nc1ccc(CN2CCC(CCc3ccccn3)(c3ccccn3)CC2)cc1 [Compound 16, N-(4-((4-(pyridin-2-yl)-4-(2-(pyridin-2-yl)ethyl)piperidin-1-yl)methyl)phenyl)acetamide] | > 10 |
| CC(=O)N(C)c1ccc(CN2CCC(CCc3ccccc3)(c3ccccn3)CC2)cc1 [Compound 17, N-methyl-N-(4-((4-phenethyl-4-(pyridin-2-yl)piperidin-1-yl)methyl)phenyl)acetamide] | > 10 |
| CC(C)C(=O)Nc1ccc(CN2CCC(CCc3ccccc3)(c3ccccn3)CC2)cc1 [Compound 18, N-(4-((4-phenethyl-4-(pyridin-2-yl)piperidin-1-yl)methyl)phenyl)iso-butyramide] | > 10 |
| CCC(=O)Nc1ccc(CN2CCC(CCc3ccccc3)(c3ccccn3)CC2)cc1 [Compound 19, N-(4-((4-phenethyl-4-(pyridin-2-yl)piperidin-1-yl)methyl)phenyl)pro-pionamide] | > 10 |
| CCCCC(=O)Nc1ccc(CN2CCC(CCc3ccccc3)(c3ccccn3)CC2)cc1 [Compound 20, N-(4-((4-phenethyl-4-(pyridin-2-yl)piperidin-1-yl)methyl)phenyl)pen-tanamide] | > 10 |
| CC(C)CCC(=O)Nc1ccc(CN2CCC(CCc3ccccc3)(c3ccccn3)CC2)cc1 [Compound 21, 4-methyl-N-(4-((4-phenethyl-4-(pyridin-2-yl)piperidin-1-yl)methyl)phenyl)pen-tanamide] | > 10 |
| CCOC(=O)Nc1ccc(CN2CCC(CCc3ccccc3)(c3ccccn3)CC2)cc1 [Compound 22, ethyl 4-((4-phenethyl-4-(pyridin-2-yl)piperidin-1-yl)methyl)phenylcarbamate] | > 10 |
| NC(=O)Nc1ccc(CN2CCC(CCc3ccccc3)(c3ccccn3)CC2)cc1 [Compound 23, 1-(4-((4-phenethyl-4-(pyridin-2-yl)piperidin-1-yl)methyl)phenyl)urea] | > 10 |
| O=C(Nc1ccc(CN2CCC(CCc3ccccc3)(c3ccccn3)CC2)cc1)c1ccccc1 [Compound 24, N-(4-((4-phenethyl-4-(pyridin-2-yl)piperidin-1-yl)methyl)phenyl)benz-amide] | > 10 |
| CNc1ccc(CN2CCC(CCc3ccccc3)(c3ccccn3)CC2)cc1 [Compound 25, N-methyl-4-((4-phenethyl-4-(pyridin-2-yl)piperidin-1-yl)methyl)aniline] | > 10 |
| c1ccc(CCC2(c3ccccn3)CCN(Cc3ccccc3)CC2)cc1 [Compound 26, 2-(1-benzyl-4-phenethylpiperidin-4-yl)pyridine] | > 10 |
| COC(=O)C1(CCc2ccccc2)CN(Cc2ccc(NC(C)=O)cc2)C1.Cl [Compound 27, methyl 1-(4-acetamidobenzyl)-3-phenethylazetidine-3-carboxylate HCl] | > 10 |
| COC(=O)C1(CCc2ccccc2)CCN(Cc2ccc(NC(C)=O)cc2)C1 (centres unmarked) [Compound 28, methyl 1-(4-acetamidobenzyl)-3-phenethylpyrrolidine-3-carboxylate] | < 10 |
| COC(=O)C1(CCc2ccccc2)CCCN(Cc2ccc(NC(C)=O)cc2)C1 (centres unmarked) [Compound 29, methyl 1-(4-acetamidobenzyl)-3-phenethylpiperidine-3-carboxylate] | > 10 |
